These results are taken from publication PMC3671673, “In Vitro Morphological Assessment of Apoptosis Induced by Antiproliferative Constituents from the Rhizomes of Curcuma zedoaria” (Evidence-based Complementary and Alternative Medicine : eCAM, 2013).

The test system of one assay is MCF-7 cells. The assay is described as follows: Hoechst 33342/PI dual staining, quantification of apoptotic/necrotic cells, MCF-7. The format is cell-based, human. The following applies: 48 h. Here is the method: (§1) Briefly, cells were grown on tissue culture dishes and treated with or without tested compounds at concentrations of 12.5, 25, 40, and 50 μg/mL. After 48 hours, the cells were harvested and washed with cold PBS to a density of 5 × 10^5 cells/mL. The cells were suspended in Hoechst 33342 solution (10 μg/mL) and were incubated at 37°C in CO2 for 7 minutes. After incubation with Hoechst 33342, the cells were counter stained with propidium iodide (2.5 μg/mL). The samples were maintained in the dark for 15 minutes. After staining, an aliquot of cell suspension was placed on a glass microscope slides. The slides were observed immediately under inverted fluorescence microscope (DM16000B, Germany) using UV/488 dual excitation and the fluorescence was measured at ~460 nm emission of Hoechst 33342 dye and >575 nm emission of propidium iodide at 630x magnification. At least 200 total target cells were counted and the numbers of each four cellular states were recorded and analyzed using fluorescence microscopy for quantification of apoptosis and necrosis. The experiment was conducted in triplicates. The percentages of apoptotic and necrotic cells were determined according to the following formula [27]: (1) Percentage of Apoptotic Cells (%) =(LA+DA)/ LN+LA+DN+DA×100,Percentage of Necrotic Cells (%) = DN/LN+LA+DN+DA×100, where LN are live target cells with normal nuclei (Hoechst 33342/PI: blue chromatin with organized structure), LA are live cells with apoptotic nuclei (Hoechst 33342/PI: bright blue chromatin that is highly condensed or fragmented), DN are dead cells with normal nuclei (Hoechst 33342/PI: pink chromatin with organized structure), and DA are dead cells with apoptotic nuclei (Hoechst 33342/PI: bright pink chromatin that is, highly condensed or fragmented).

In another assay the test system is Ca Ski cells. The assay is described as follows: Morphological changes by phase contrast inverted microscope, Ca Ski. Type of assay: cell-based, human. As to conditions: 48 h, 12.5-50 μg/mL, phase contrast 200x. Here is the method:
Observation of morphological changes of apoptotic cells was performed according to the method with slight modifications. Briefly, 5 × 10^5 cells were incubated for 48 hours with or without selected compounds at concentrations of 12.5, 25, 40, and 50 μg/mL in a 60 mm diameter tissue culture dishes. The medium was discarded and cells were washed once with PBS. The morphological changes of the apoptotic cells were observed using phase contrast inverted microscope (Leica DMI 3000B, Germany) at 200x magnifications.

The subject of a further assay is HCT-116 cells. As to the kind of experiment: Hoechst 33342/PI dual staining, quantification of apoptotic/necrotic cells, HCT-116. The format is cell-based, human. The following applies: 48 h. Here is the method: as §1
Assay [1] deals with colon carcinoma cell line (HCT-116). As to the kind of experiment: Neutral red cytotoxicity assay, HCT-116. The following applies: Homo sapiens, isolated compounds, 72 h, mean ± SD of three replicates, read-out: IC50 (μg/mL) HCT-116. Type of assay: cell-based. The method, then: The human cancer cells KB, Ca Ski, MCF-7, HCT-116, A549, and noncancer human cell lines (MRC-5) were purchased from the American Tissue Culture Collection (ATCC, USA). The supplemented RPMI 1640 media and eagle minimum essential medium (EMEM) were purchased from Sigma-Aldrich, USA. The supplements or antibiotics such as foetal bovine serum (FBS), penicillin/streptomycin (P/S) (100 μg/mL), amphotericin B (50 μg/mL), and accutase were purchased from PAA Laboratories, Austria. Sodium pyruvate (11 mg/mL) purchased from Sigma-Aldrich, USA. The cells were cultured in a SHEL LAB water-jacketed CO2 incubator with […] tissue culture flasks (Nunc, Denmark), which was observed routinely under inverted microscope (Leica DMI3000 B, Germany) for any contamination and seeded into 96-well flat bottom microtiter plate (Nunc, Denmark). The extract or pure compounds was dissolved in dimethyl sulfoxide (DMSO, Molecular Biology Grade, >99.9%) from Sigma-Aldrich, USA. Microtiter plate incubator shaker (LT Biomax 500) was used and absorbance was measured at 540 nm using an ELISA microplate reader (EMax microplate reader of Molecular Devices, USA). MCF-7 and Ca Ski were cultured in RPMI 1640 media supplemented with 10% v/v FBS, P/S, and amphotericin B and MRC-5 in EMEM media with 10% v/v FBS, P/S, amphotericin B, and sodium pyruvate. The cells were cultured in tissue culture flask in 5% CO2 incubator kept at 37°C in a humidified atmosphere and observed routinely under inverted microscope from any contaminations. Each fresh medium was replaced every 2 or 3 days until cell confluence was achieved and the cells were detached by using accutase.
The in vitro cytotoxicity activity was performed using the neutral red cytotoxicity assay based on the initial protocol as described earlier with some modifications. Briefly, cells were detached from the tissue culture flask with 1.0 mL solution of accutase and PBS solution. The cell pellet was obtained by centrifugation at 1,000 rpm for 5 minutes. The density of the viable cells was counted by 0.4% of trypan blue exclusion in a haemocytometer. Cells were then plated in 96-well microtiter plate (Nunc), at a concentration of 1 × 10^4 cells/well and incubated in a CO2 incubator at 37°C to allow the cells to adhere. After 24 h, the cells were treated with six different concentrations, that is, 1, 10, 25, 50, 75, and 100 μg/mL of each tested agent in three replicates. The plates were incubated for 72 h at 37°C in a 5% CO2 incubator. The untreated cells were regarded as a negative control, whilst cells incubated only with DMSO (0.5%, v/v) were used as a vehicle control. No effect due to the DMSO was observed. Doxorubicin was used as the positive control. After 72 h, the old medium was substituted with fresh medium containing 50 μg/mL neutral red. The 96-well plates were placed into incubator for 3 h. This is to allow the uptake of the vital dye into the lysosomes of viable and undamaged cells. Then, the media was discarded and cells were washed with 200 μL of neutral red washing solution. The dye was eluted from the cells by adding neutral red resorb solution (200 μL). The plate was further incubated for 30 min with rapid agitation on a microtiter plate shaker. The optical density (OD) of the eluted dye was read at 540 nm using a microplate reader. The experiments were conducted in triplicates. […] Cytotoxicity of each test agent is expressed as IC50 value. […]

Molecules are shown by their SMILES. Values after ≈ are worked out from the molar mass of the structure shown. Marks after values point to notes of the source that are not given here.

Turning to `C=C1CCC(C(C)C)=CC2C1CC[C@@]2(C)O` (stereo partly drawn) [Alismol, alismol], the “Percentage of apoptotic cells (%)” value in the assay with MCF-7 cells (MCF-7, 12.5 μg/mL) is given as 6.17 ± 0.58^a %; in the assay on MCF-7 cells (MCF-7, 25 μg/mL), 9.17 ± 1.5^b %; with MCF-7 cells (MCF-7, 40 μg/mL), 43.00 ± 1.0^d %; with MCF-7 cells (MCF-7, 40 μg/mL, listed as alismol) it was 43.0 ± 1.0%; with MCF-7 cells (MCF-7, 50 μg/mL), 29.63 ± 1.1^c %; in the assay on HCT-116 cells (HCT-116, 12.5 μg/mL), 48.83 ± 1.61^b %. The “Percentage of apoptotic cells (%)” value in the assay on HCT-116 cells (HCT-116, 25 μg/mL) was 55.33 ± 3.01^b %; in the assay with HCT-116 cells (HCT-116, 25 μg/mL, listed as alismol), 55.3 ± 3.0%; in the assay on HCT-116 cells (HCT-116, 40 μg/mL) it was 21.33 ± 2.02^a %; in the assay with HCT-116 cells (HCT-116, 50 μg/mL) it was 19.00 ± 0.87^a %. The “Percentage of necrotic cells (%)” value is 3.83 ± 0.30^a % in the assay with MCF-7 cells (MCF-7, 12.5 μg/mL); 5.17 ± 1.50^b % in the assay with MCF-7 cells (MCF-7, 25 μg/mL); 38.33 ± 1.30^c % in the assay on MCF-7 cells (MCF-7, 40 μg/mL); 58.97 ± 1.10^d % in the assay with MCF-7 cells (MCF-7, 50 μg/mL); 59.0 ± 1.1% in the assay with MCF-7 cells (MCF-7, 50 μg/mL, listed as alismol); 19.50 ± 1.00^a % with HCT-116 cells (HCT-116, 12.5 μg/mL). Moreover, the “Percentage of necrotic cells (%)” value in the assay with HCT-116 cells (HCT-116, 25 μg/mL) is 26.00 ± 1.30^b %; with HCT-116 cells (HCT-116, 40 μg/mL), 67.67 ± 2.60^c %; in the assay with HCT-116 cells (HCT-116, 50 μg/mL), 76.67 ± 0.80^d %; in the assay on HCT-116 cells (HCT-116, 50 μg/mL, listed as alismol), 76.7 ± 0.8%. Besides, the “morphological changes (in words)” value in the assay with Ca Ski cells is “typical apoptotic features”. The IC50 in assay [1] was 9 ± 0.9 µg/mL (≈ 40.8 µM).

Regarding `C=CC1(C)Cc2occ(C)c2C(=O)C1C(=C)C` (stereo not drawn) [Curzerenone, curzerenone], the “Percentage of apoptotic cells (%)” value in the assay on MCF-7 cells (MCF-7, 12.5 μg/mL) is 4.83 ± 0.58^a %; in the assay on MCF-7 cells (MCF-7, 25 μg/mL) it was 5.83 ± 0.76^a %; in the assay with MCF-7 cells (MCF-7, 40 μg/mL) it was 53.00 ± 2.2^b %; in the assay on MCF-7 cells (MCF-7, 40 μg/mL, listed as curzerenone) it was 53.0 ± 2.2%; in the assay with MCF-7 cells (MCF-7, 50 μg/mL), 57.33 ± 4.65^b %; in the assay with HCT-116 cells (HCT-116, 12.5 μg/mL), 45.00 ± 0.5^a %. Moreover, the “Percentage of apoptotic cells (%)” value is given as 50.00 ± 0.5^b % with HCT-116 cells (HCT-116, 25 μg/mL); 50.0 ± 0.5% with HCT-116 cells (HCT-116, 25 μg/mL, listed as curzerenone); 46.5 ± 1.44^a % with HCT-116 cells (HCT-116, 40 μg/mL); 49.17 ± 1.4^b % in the assay with HCT-116 cells (HCT-116, 50 μg/mL). Moreover, the “Percentage of necrotic cells (%)” value was 2.00 ± 1.30^a % in the assay with MCF-7 cells (MCF-7, 12.5 μg/mL); 3.83 ± 0.60^b % in the assay on MCF-7 cells (MCF-7, 25 μg/mL); 5.50 ± 1.30^c % in the assay on MCF-7 cells (MCF-7, 40 μg/mL); 17.83 ± 2.60^d % in the assay with MCF-7 cells (MCF-7, 50 μg/mL); 9.00 ± 1.50^a % in the assay on HCT-116 cells (HCT-116, 12.5 μg/mL); 15.33 ± 0.80^b % in the assay on HCT-116 cells (HCT-116, 25 μg/mL). Besides, the “Percentage of necrotic cells (%)” value with HCT-116 cells (HCT-116, 40 μg/mL) is given as 25.00 ± 0.50^c %; with HCT-116 cells (HCT-116, 50 μg/mL), 28.00 ± 0.50^d %. Besides, the “morphological changes (in words)” value with Ca Ski cells is given as “typical apoptotic features”. In addition, the IC50 in assay [1] is 53 ± 1.5 µg/mL (≈ 230 µM).
